Laboratory results as given in patent publication US6737383B1, “Herbicidal oxadiazolidines” (priority 1999, dated 2004).

What was measured:
[1] = test system: bedstraw; experiment: Test B pre/postemergence bedstraw; type: in vivo, Galium aparine
Procedure, shortened: (§1)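 Herbicidal effect was estimated by eye on a ten-point control scale after plants spent twelve to sixteen days in a greenhouse following soil or foliar treatment. Foliar sprays targeted plants at one to four leaves; all doses were formulated in a non-phytotoxic solvent with surfactant.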

[2] = test system: blackgrass; experiment: Test B pre/postemergence blackgrass; type: in vivo, Alopecurus myosuroides
Procedure, shortened: as §1

[3] = test system: surinam grass; experiment: Test B pre/postemergence surinam grass; type: in vivo, Brachiaria decumbens
Procedure, shortened: as §1

[4] = test system: cocklebur; experiment: Test B pre/postemergence cocklebur; type: in vivo, Xanthium strumarium
Procedure, shortened: as §1

[5] = test system: corn; experiment: Test B pre/postemergence corn; type: in vivo, Zea mays
Procedure, shortened: as §1

[6] = test system: crabgrass; experiment: Test B pre/postemergence crabgrass; type: in vivo, Digitaria sanguinalis
Procedure, shortened: as §1

[7] = test system: rape; experiment: Test B pre/postemergence rape; type: in vivo, Brassica napus
Procedure, shortened: as §1

[8] = test system: soybean; experiment: Test B pre/postemergence soybean; type: in vivo, Glycine max
Procedure, shortened: as §1

[9] = test system: sugar beet; experiment: Test B pre/postemergence sugar beet; type: in vivo, Beta vulgaris
Procedure, shortened: as §1

[10] = test system: velvetleaf; experiment: Test B pre/postemergence velvetleaf; type: in vivo, Abutilon theophrasti
Procedure, shortened: as §1

[11] = test system: wheat; experiment: Test B pre/postemergence wheat; type: in vivo, Triticum aestivum
Procedure, shortened: as §1

[12] = test system: wild oat; experiment: Test B pre/postemergence wild oat; type: in vivo, Avena fatua
Procedure, shortened: as §1

[13] = test system: purple nutsedge; experiment: Test B pre/postemergence purple nutsedge; type: in vivo, Cyperus rotundus
Procedure, shortened: as §1

[14] = test system: rice; experiment: Test B flood test rice; type: in vivo, Oryza sativa
Procedure, shortened: (§2)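 Plants were grown to the 2-leaf stage before treatment with test chemical, then held in a greenhouse for twelve to sixteen days. Injury was visually rated against untreated controls on a 0–10 scale, where 0 is no effect and 10 is complete control.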

[15] = test system: smallflower flatsedge; experiment: Test B flood test smallflower flatsedge; type: in vivo, Cyperus difformis
Procedure, shortened: as §2

[16] = test system: duck salad; experiment: Test B flood test duck salad; type: in vivo, Heteranthera limosa
Procedure, shortened: as §2

[17] = test system: bamyardgrass; experiment: Test B flood test barnyardgrass; type: in vivo, Echinochloa crus-galli
Procedure, shortened: as §2

[18] = Preemergence, Rate 250 g/ha, scale of 0 to 10 where 0 is no effect and 10 is complete control
[19] = Preemergence, Rate 500 g/ha, scale of 0 to 10 where 0 is no effect and 10 is complete control
[20] = Rate 62 g/ha, Postemergence, scale of 0 to 10 where 0 is no effect and 10 is complete control
[21] = Rate 125 g/ha, Postemergence, scale 0 to 10
[22] = Rate 125 g/ha, Preemergence, scale of 0 to 10 where 0 is no effect and 10 is complete control
[23] = Rate 500 g/ha, Postemergence, scale 0 to 10, 0 no effect, 10 complete control
[24] = Preemergence, Rate 62 g/ha, scale of 0 to 10 where 0 is no effect and 10 is complete control
[25] = Rate 62 g/ha, headed Pre-emergence (flood test species), scale 0 to 10 (0 no effect, 10 complete control)
[26] = Rate 125 g/ha, Pre-emergence, flood test species, scale 0 to 10 where 0 is no effect and 10 is complete control
[27] = Rate 250 g/ha, Pre-emergence, flood-test species, scale 0 to 10, 0 is no effect, 10 is complete control
[28] = Rate 500 g/ha, Pre-emergence, flood test species, scale 0 to 10 (0 no effect, 10 complete control)

Q: With `CC(C)N(C(=O)n1oc(=O)n(C2CC2)c1=O)c1ccc(Cl)cc1` [Compound 241] as the compound, how does the “Bedstraw plant response rating” value [1, 18] read?
A: 7

Q: And the “Plant response rating, Bedstraw” value [1, 19]?
A: 10

Q: And the “Bedstraw plant response rating” value [1, 20]?
A: 0

Q: And the “Bedstraw plant response rating” value [1, 21]?
A: 3

Q: And the “Bedstraw plant response rating” value [1, 22]?
A: 0

Q: What about the “Plant response rating (0 to 10; 0 is no effect, 10 is complete control), Bedstraw” value ([1]; Rate 250 g/ha, Postemergence) of the same compound?
A: 7

Q: What about the “Bedstraw plant response rating” value [1, 23] of the same compound?
A: 7

Q: And the “Blackgrass plant response rating” value [2, 24]?
A: 6

Q: And the “Blackgrass plant response rating” value [2, 18]?
A: 7

Q: And the “Plant response rating, Blackgrass” value [2, 19]?
A: 10

Q: And the “Blackgrass plant response rating” value [2, 20]?
A: 3

Q: What about the “Blackgrass plant response rating” value [2, 21] of the same compound?
A: 7

Q: What about the “Blackgrass plant response rating” value [2, 22] of the same compound?
A: 6

Q: What about the “Plant response rating (0 to 10; 0 is no effect, 10 is complete control), Blackgrass” value ([2]; Rate 250 g/ha, Postemergence) of the same compound?
A: 8

Q: What about the “Blackgrass plant response rating” value [2, 23] of the same compound?
A: 9

Q: What about the “B. signalgrass plant response rating” value [3, 24] of the same compound?
A: 0

Q: And the “B. signalgrass plant response rating” value [3, 18]?
A: 4

Q: And the “Plant response rating, B. signalgrass” value [3, 19]?
A: 4

Q: What about the “B. signalgrass plant response rating” value [3, 20] of the same compound?
A: 0

Q: What about the “B. signalgrass plant response rating” value ([3]; Rate 125 g/ha, Postemergence, scale 0 (no effect) to 10 (complete control)) of the same compound?
A: 2

Q: And the “B. signalgrass plant response rating” value [3, 22]?
A: 2

Q: What about the “Plant response rating (0 to 10; 0 is no effect, 10 is complete control), B. signalgrass” value ([3]; Rate 250 g/ha, Postemergence) of the same compound?
A: 4

Q: And the “B. signalgrass plant response rating” value [3, 23]?
A: 6

Q: And the “Cocklebur plant response rating” value [4, 24]?
A: 0

Q: What about the “Cocklebur plant response rating” value [4, 18] of the same compound?
A: 0

Q: And the “Plant response rating, Cocklebur” value [4, 19]?
A: 0

Q: And the “Cocklebur plant response rating” value [4, 20]?
A: 0

Q: What about the “Cocklebur plant response rating” value [4, 21] of the same compound?
A: 0

Q: And the “Cocklebur plant response rating” value [4, 22]?
A: 0

Q: And the “Plant response rating (0 to 10; 0 is no effect, 10 is complete control), Cocklebur” value ([4]; Rate 250 g/ha, Postemergence)?
A: 1

Q: What about the “Cocklebur plant response rating” value [4, 23] of the same compound?
A: 1

Q: And the “Corn plant response rating” value [5, 24]?
A: 0

Q: And the “Corn plant response rating” value [5, 18]?
A: 0

Q: What about the “Plant response rating, Corn” value [5, 19] of the same compound?
A: 5

Q: And the “Corn plant response rating” value [5, 20]?
A: 0

Q: And the “Corn plant response rating” value [5, 21]?
A: 0

Q: What about the “Corn plant response rating” value [5, 22] of the same compound?
A: 0

Q: What about the “Plant response rating (0 to 10; 0 is no effect, 10 is complete control), Corn” value ([5]; Rate 250 g/ha, Postemergence) of the same compound?
A: 0

Q: What about the “Corn plant response rating” value [5, 23] of the same compound?
A: 0

Q: What about the “Crabgrass plant response rating” value [6, 24] of the same compound?
A: 3

Q: And the “Crabgrass plant response rating” value [6, 18]?
A: 10

Q: What about the “Plant response rating, Crabgrass” value [6, 19] of the same compound?
A: 10

Q: What about the “Crabgrass plant response rating” value [6, 20] of the same compound?
A: 2

Q: And the “Crabgrass plant response rating” value [6, 22]?
A: 7

Q: What about the “Plant response rating (0 to 10; 0 is no effect, 10 is complete control), Crabgrass” value ([6]; Rate 250 g/ha, Postemergence) of the same compound?
A: 8

Q: What about the “Crabgrass plant response rating” value [6, 23] of the same compound?
A: 9

Q: What about the “Rape plant response rating” value [7, 24] of the same compound?
A: 0

Q: What about the “Rape plant response rating” value [7, 18] of the same compound?
A: 5

Q: And the “Plant response rating, Rape” value [7, 19]?
A: 9

Q: What about the “Rape plant response rating” value [7, 20] of the same compound?
A: 0

Q: What about the “Rape plant response rating” value [7, 22] of the same compound?
A: 0

Q: What about the “Plant response rating (0 to 10; 0 is no effect, 10 is complete control), Rape” value ([7]; Rate 250 g/ha, Postemergence) of the same compound?
A: 2

Q: And the “Rape plant response rating” value [7, 23]?
A: 4

Q: What about the “Soybean plant response rating” value [8, 24] of the same compound?
A: 0

Q: And the “Soybean plant response rating” value [8, 18]?
A: 0

Q: And the “Plant response rating, Soybean” value [8, 19]?
A: 4

Q: What about the “Soybean plant response rating” value [8, 20] of the same compound?
A: 1

Q: What about the “Soybean plant response rating” value [8, 22] of the same compound?
A: 0

Q: And the “Soybean plant response rating” value [8, 23]?
A: 4

Q: What about the “Sugarbeets plant response rating” value [9, 24] of the same compound?
A: 0

Q: What about the “Sugarbeets plant response rating” value [9, 18] of the same compound?
A: 6

Q: And the “Plant response rating, Sugarbeets” value [9, 19]?
A: 6

Q: And the “Sugarbeets plant response rating” value [9, 20]?
A: 0

Q: And the “Sugarbeets plant response rating” value [9, 22]?
A: 0

Q: What about the “Sugarbeets plant response rating” value [9, 23] of the same compound?
A: 5

Q: And the “Velvetleaf plant response rating” value [10, 24]?
A: 2

Q: And the “Velvetleaf plant response rating” value [10, 18]?
A: 5

Q: What about the “Plant response rating, Velvetleaf” value [10, 19] of the same compound?
A: 7

Q: What about the “Velvetleaf plant response rating” value [10, 20] of the same compound?
A: 2

Q: What about the “Velvetleaf plant response rating” value [10, 22] of the same compound?
A: 5

Q: What about the “Velvetleaf plant response rating” value [10, 23] of the same compound?
A: 1

Q: And the “Wheat plant response rating” value [11, 24]?
A: 0

Q: And the “Wheat plant response rating” value [11, 18]?
A: 3

Q: And the “Plant response rating, Wheat” value [11, 19]?
A: 5

Q: And the “Wheat plant response rating” value [11, 20]?
A: 0

Q: What about the “Wheat plant response rating” value [11, 22] of the same compound?
A: 0

Q: And the “Wheat plant response rating” value [11, 23]?
A: 8

Q: What about the “Wild oats plant response rating” value [12, 24] of the same compound?
A: 3

Q: And the “Wild oats plant response rating” value [12, 18]?
A: 8

Q: And the “Plant response rating, Wild oats” value [12, 19]?
A: 8

Q: What about the “Wild oats plant response rating” value [12, 20] of the same compound?
A: 0

Q: What about the “Wild oats plant response rating” value [12, 22] of the same compound?
A: 5

Q: What about the “Wild oats plant response rating” value [12, 23] of the same compound?
A: 2

Q: What about the “Nutsedge plant response rating” value [13, 18] of the same compound?
A: 10

Q: What about the “Plant response rating, Nutsedge” value [13, 19] of the same compound?
A: 10

Q: And the “Nutsedge plant response rating” value [13, 20]?
A: 0

Q: And the “Nutsedge plant response rating” value [13, 22]?
A: 0

Q: What about the “Plant response rating (0 to 10; 0 is no effect, 10 is complete control), Nutsedge” value ([13]; Rate 250 g/ha, Postemergence) of the same compound?
A: 0

Q: What about the “Nutsedge plant response rating” value [13, 23] of the same compound?
A: 6

Q: What about the “Rice plant response rating” value [14, 25] of the same compound?
A: 0

Q: And the “Rice plant response rating” value [14, 26]?
A: 0

Q: What about the “Rice plant response rating” value [14, 27] of the same compound?
A: 0

Q: What about the “Rice plant response rating” value [14, 28] of the same compound?
A: 0

Q: And the “S. Flatsedge plant response rating” value [15, 25]?
A: 0

Q: And the “S. Flatsedge plant response rating” value [15, 26]?
A: 0

Q: And the “S. Flatsedge plant response rating” value [15, 27]?
A: 0

Q: What about the “S. Flatsedge plant response rating” value [15, 28] of the same compound?
A: 0

Q: What about the “Ducksalad plant response rating” value [16, 25] of the same compound?
A: 0

Q: What about the “Ducksalad plant response rating” value [16, 26] of the same compound?
A: 0

Q: What about the “Ducksalad plant response rating” value [16, 27] of the same compound?
A: 0

Q: And the “Ducksalad plant response rating” value [16, 28]?
A: 0

Q: What about the “Barnyardgrass plant response rating” value [17, 25] of the same compound?
A: 0

Q: What about the “Barnyardgrass plant response rating” value [17, 26] of the same compound?
A: 0

Q: What about the “Barnyardgrass plant response rating” value [17, 27] of the same compound?
A: 0

Q: What about the “Barnyardgrass plant response rating” value [17, 28] of the same compound?
A: 0
